# Experimental data taken from PMC10321317 (Genome Biology and Evolution, 2023).
# Entries after “also recorded” stand apart in the source; their conditions may differ. Square brackets hold non-standard residues; d marks the D form. Ends that are not written are not given here. Peptide text beside a SMILES is read from it. pGlu = O=C1CC[C@@H](C(=O)O)N1
# How the values were obtained:
# B. floridae CRZR1 = target: T1, B. floridae CRZR1 (Branchiostoma floridae, UniProt C0IP22); experiment: Luminescence response in HEK293-G5a cells expressing B. floridae CRZR1 (with Gαqi9); type: cell-based
# T1 sequence (C0IP22 1-831): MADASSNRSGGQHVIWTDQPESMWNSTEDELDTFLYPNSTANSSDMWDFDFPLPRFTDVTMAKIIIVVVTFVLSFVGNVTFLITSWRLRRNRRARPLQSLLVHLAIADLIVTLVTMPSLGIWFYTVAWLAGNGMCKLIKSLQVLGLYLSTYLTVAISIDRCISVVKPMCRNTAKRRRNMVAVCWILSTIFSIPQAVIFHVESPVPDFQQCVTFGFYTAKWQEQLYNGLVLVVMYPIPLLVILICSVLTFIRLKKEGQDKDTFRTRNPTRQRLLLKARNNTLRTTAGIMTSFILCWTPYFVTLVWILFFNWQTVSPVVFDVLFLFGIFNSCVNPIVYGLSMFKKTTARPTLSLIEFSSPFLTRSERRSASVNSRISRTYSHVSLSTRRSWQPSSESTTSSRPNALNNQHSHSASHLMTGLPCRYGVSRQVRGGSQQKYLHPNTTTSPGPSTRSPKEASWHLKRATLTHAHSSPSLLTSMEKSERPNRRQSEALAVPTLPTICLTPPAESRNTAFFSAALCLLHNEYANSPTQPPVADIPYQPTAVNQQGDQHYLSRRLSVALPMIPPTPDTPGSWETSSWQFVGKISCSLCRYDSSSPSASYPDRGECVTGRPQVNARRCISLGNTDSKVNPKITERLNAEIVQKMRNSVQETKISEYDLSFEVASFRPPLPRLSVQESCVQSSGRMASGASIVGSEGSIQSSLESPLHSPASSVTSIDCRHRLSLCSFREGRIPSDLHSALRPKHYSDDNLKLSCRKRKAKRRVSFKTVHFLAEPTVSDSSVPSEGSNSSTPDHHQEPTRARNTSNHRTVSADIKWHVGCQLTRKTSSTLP
# Excerpt: (§1) For this purpose, we expressed individual receptors in a heterologous expression system comprising human embryo kidney 293 cells (HEK293-G5a) cells and monitored luminescence responses to three synthetic peptides.
# (§2) Five millimoles of stock solutions of all peptides were first prepared in 50% Dimethyl sulfoxide. […] These receptors were codon-optimized for mammalian cell lines, synthesized and cloned into pcDNA3.4(+) vector by Genscript synthesis services. A 5′ partial Kozak translation initiation sequence (CCACC) was also included to improve expression. The codon-optimized receptor sequences are provided in supplementary file 9, Supplementary Material online. HEK293-G5a (Angio-proteomie CAT no. cAP-0200GFP-AEQ-Cyto) cells were cultured in 96 well-plates containing 100 μl of Dublecco’s Modified Eagle medium (DMEM; Thermo; Cat. No. 10566016) supplemented with 10% foetal bovine serum (Thermo; Cat. No. 10082147). The plates were kept in an incubator at 37°C and 5% CO2. Upon reaching 85% confluency, cells were co-transfected with plasmids encoding individual receptors or the empty pcDNA3.1 + vector (control), and the Gαqi9 promiscuous protein [Addgene; Cat. No. 125711 {[Masharina et al. 2012]}], as described previously ([Yañez-Guerra et al. 2022]). Transfections were carried out with 60 ng of each plasmid and 0.45 μl of the transfection reagent Transfectamine 5,000 (AAT-bioquest; Cat. No. 60022) per well. Two days post-transfection, the media was replaced with fresh DMEM medium supplemented with […] coelenterazine-H (Thermo Fisher Scientific; Cat. No. C6780). The cells were incubated for 2 h and then used for the luminescence assay. Various concentrations of the three synthetic peptides ranging from 10^−4 M to 10^−12 M were prepared in DMEM media and tested on the cells. Luminescence levels were recorded and integrated over a 65-s measurement period in a FlexStation 3 Multi-Mode Microplate Reader (Molecular Devices). A minimum of two independent transfections (biological replicates) for each receptor and two–three technical replicates for each peptide concentration were performed. […]
# B. floridae GnRHR1 = target: T2, B. floridae GnRHR1 (Branchiostoma floridae, UniProt C0IP19); experiment: Luminescence response in HEK293-G5a cells expressing B. floridae GnRHR1 (with Gαqi9); type: cell-based
# T2 sequence (C0IP19 1-403): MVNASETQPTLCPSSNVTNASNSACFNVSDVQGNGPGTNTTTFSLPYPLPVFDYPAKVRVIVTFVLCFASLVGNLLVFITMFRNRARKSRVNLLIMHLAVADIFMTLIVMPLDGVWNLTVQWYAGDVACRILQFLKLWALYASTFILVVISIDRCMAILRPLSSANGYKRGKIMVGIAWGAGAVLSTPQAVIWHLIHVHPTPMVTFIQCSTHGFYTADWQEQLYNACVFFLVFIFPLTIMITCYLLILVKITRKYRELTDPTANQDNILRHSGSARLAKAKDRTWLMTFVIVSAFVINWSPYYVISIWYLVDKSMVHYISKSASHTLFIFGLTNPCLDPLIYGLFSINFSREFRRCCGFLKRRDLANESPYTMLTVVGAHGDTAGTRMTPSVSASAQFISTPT
# Excerpt: as §1, §2
# [1] = target: one of the two CRZ-like receptors; design: method as in Roch, Tello, et al. 2014; conditions: ref Roch, Tello, et al. 2014; cited from earlier work
# B. floridae CRZR3 = target: T3, B. floridae CRZR3 (Branchiostoma floridae, UniProt A0A9J7HT38); experiment: Luminescence response in HEK293-G5a cells expressing B. floridae CRZR3 (with Gαqi9); type: cell-based; conditions: for EC50: fig. 2D, HEK293-G5a, Gαqi9, 10^−4 M to 10^−12 M in DMEM, luminescence integrated over 65 s, normalized to maximum response, four-parameter curve, minimum of two independent transfections, read-out: EC50 values for the dose–response curves, CRZR3
# T3 sequence (A0A9J7HT38 1-394): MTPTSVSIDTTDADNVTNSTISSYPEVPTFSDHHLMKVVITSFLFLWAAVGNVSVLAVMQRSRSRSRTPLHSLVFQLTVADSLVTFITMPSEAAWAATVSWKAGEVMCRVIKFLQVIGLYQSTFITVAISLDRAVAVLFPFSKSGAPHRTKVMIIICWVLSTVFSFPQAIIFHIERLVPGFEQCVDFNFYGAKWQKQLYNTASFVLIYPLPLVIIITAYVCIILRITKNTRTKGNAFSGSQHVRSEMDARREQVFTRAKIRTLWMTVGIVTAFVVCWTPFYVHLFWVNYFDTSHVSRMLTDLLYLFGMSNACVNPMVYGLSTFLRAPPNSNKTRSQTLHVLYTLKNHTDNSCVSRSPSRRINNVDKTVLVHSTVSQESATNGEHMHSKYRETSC
# Excerpt: as §1
# Five millimoles of stock solutions of all peptides were first prepared in 50% Dimethyl sulfoxide. […] These receptors were codon-optimized for mammalian cell lines, synthesized and cloned into pcDNA3.4(+) vector by Genscript synthesis services. A 5′ partial Kozak translation initiation sequence (CCACC) was also included to improve expression. The codon-optimized receptor sequences are provided in supplementary file 9, Supplementary Material online. HEK293-G5a (Angio-proteomie CAT no. cAP-0200GFP-AEQ-Cyto) cells were cultured in 96 well-plates containing 100 μl of Dublecco’s Modified Eagle medium (DMEM; Thermo; Cat. No. 10566016) supplemented with 10% foetal bovine serum (Thermo; Cat. No. 10082147). The plates were kept in an incubator at 37°C and 5% CO2. Upon reaching 85% confluency, cells were co-transfected with plasmids encoding individual receptors or the empty pcDNA3.1 + vector (control), and the Gαqi9 promiscuous protein [Addgene; Cat. No. 125711 {[Masharina et al. 2012]}], as described previously ([Yañez-Guerra et al. 2022]). Transfections were carried out with 60 ng of each plasmid and 0.45 μl of the transfection reagent Transfectamine 5,000 (AAT-bioquest; Cat. No. 60022) per well. Two days post-transfection, the media was replaced with fresh DMEM medium supplemented with […] coelenterazine-H (Thermo Fisher Scientific; Cat. No. C6780). The cells were incubated for 2 h and then used for the luminescence assay. Various concentrations of the three synthetic peptides ranging from 10^−4 M to 10^−12 M were prepared in DMEM media and tested on the cells. Luminescence levels were recorded and integrated over a 65-s measurement period in a FlexStation 3 Multi-Mode Microplate Reader (Molecular Devices). A minimum of two independent transfections (biological replicates) for each receptor and two–three technical replicates for each peptide concentration were performed. The responses were normalized to the maximum response obtained following the addition of peptide in each experiment (100% activation) and to the response obtained with the vehicle media (0% activation). Normalized data from the independent transfections was used to plot the dose–response curves (fitted with a four-parameter curve) using the package drc in R ([Ritz et al. 2015]). The raw data for the emtpy-vector control and receptor characterization are provided in supplementary files 10 and 11, Supplementary Material online, respectively. The script used for the dose–response curve analysis is available on Github (https://github.com/Imnotabioinformatician/Branchiostoma_Dose_response_curves).
# B. floridae CRZR2 = target: T4, B. floridae CRZR2 (Branchiostoma floridae, UniProt C4N9P5); experiment: Luminescence response in HEK293-G5a cells expressing B. floridae CRZR2 (with Gαqi9); type: cell-based
# T4 sequence (C4N9P5 1-421): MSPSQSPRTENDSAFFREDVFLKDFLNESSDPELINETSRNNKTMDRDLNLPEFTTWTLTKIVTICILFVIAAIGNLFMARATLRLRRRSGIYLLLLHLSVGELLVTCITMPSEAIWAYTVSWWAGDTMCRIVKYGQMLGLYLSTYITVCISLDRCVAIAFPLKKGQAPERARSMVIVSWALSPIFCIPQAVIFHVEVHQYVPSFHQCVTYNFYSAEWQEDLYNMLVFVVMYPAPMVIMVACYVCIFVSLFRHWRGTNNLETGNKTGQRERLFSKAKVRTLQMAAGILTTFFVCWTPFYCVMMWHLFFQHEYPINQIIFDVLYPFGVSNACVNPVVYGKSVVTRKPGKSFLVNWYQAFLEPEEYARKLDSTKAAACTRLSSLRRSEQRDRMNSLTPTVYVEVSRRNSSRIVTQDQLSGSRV
# Excerpt: as §1
# Five millimoles of stock solutions of all peptides were first prepared in 50% Dimethyl sulfoxide. […] These receptors were codon-optimized for mammalian cell lines, synthesized and cloned into pcDNA3.4(+) vector by Genscript synthesis services. A 5′ partial Kozak translation initiation sequence (CCACC) was also included to improve expression. The codon-optimized receptor sequences are provided in supplementary file 9, Supplementary Material online. HEK293-G5a (Angio-proteomie CAT no. cAP-0200GFP-AEQ-Cyto) cells were cultured in 96 well-plates containing 100 μl of Dublecco’s Modified Eagle medium (DMEM; Thermo; Cat. No. 10566016) supplemented with 10% foetal bovine serum (Thermo; Cat. No. 10082147). The plates were kept in an incubator at 37°C and 5% CO2. […] The cells were incubated for 2 h and then used for the luminescence assay. […] Luminescence levels were recorded and integrated over a 65-s measurement period in a FlexStation 3 Multi-Mode Microplate Reader (Molecular Devices). […]
# B. floridae GnRHR2 = target: T5, B. floridae GnRHR2 (Branchiostoma floridae, UniProt C0IP20); experiment: Luminescence response in HEK293-G5a cells expressing B. floridae GnRHR2 (with Gαqi9); type: cell-based
# T5 sequence (C0IP20 1-397): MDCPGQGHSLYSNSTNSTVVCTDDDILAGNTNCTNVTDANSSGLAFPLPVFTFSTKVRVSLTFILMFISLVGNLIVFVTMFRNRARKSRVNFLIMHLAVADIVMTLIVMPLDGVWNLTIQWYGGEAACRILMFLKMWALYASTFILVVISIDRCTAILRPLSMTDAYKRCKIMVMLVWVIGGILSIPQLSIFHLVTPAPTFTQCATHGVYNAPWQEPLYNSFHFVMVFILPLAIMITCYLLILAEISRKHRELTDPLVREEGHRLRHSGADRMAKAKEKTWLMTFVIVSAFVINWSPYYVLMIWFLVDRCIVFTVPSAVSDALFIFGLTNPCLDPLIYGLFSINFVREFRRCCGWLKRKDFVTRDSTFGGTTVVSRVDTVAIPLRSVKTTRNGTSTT
# Excerpt: as §1, §2
compound,measurement,setting,value
CC[C@H](C)[C@H](NC(=O)[C@@H]1CCC(=O)N1)C(=O)N[C@@H](CC(C)C)C(=O)N[C@@H](CS)C(=O)N[C@@H](C)C(=O)N[C@@H](CCCNC(=N)N)C(=O)N[C@@H](C)C(=O)N[C@@H](Cc1ccccc1)C(=O)N[C@H](C(=O)N[C@@H](Cc1ccc(O)cc1)C(=O)N[C@H](C(=O)N[C@@H](Cc1c[nH]cn1)C(=O)N[C@H](C(=O)N[C@@H](Cc1c[nH]c2ccccc12)C(N)=O)[C@@H](C)O)[C@@H](C)O)[C@@H](C)O [CRZ-ext] ([pGlu]ILCARAFTYTHTW-NH2),"EC50 for the response, CRZR1 (in words)",B. floridae CRZR1,equally high
same,activation of CRZR1 (in words),B. floridae CRZR1,"all activated by CRZ, GnRH, and CRZ-ext; also recorded: also activated by CRZ-ext"
same,activation of GnRHR1 (in words),"B. floridae GnRHR1; HEK293-G5a cells, luminescence",Neither of these two receptors were activated
same,activation of one of the two CRZ-like receptors (in words),[1],high nanomolar range
same,"EC50 for the response, CRZR3 (in words)","B. floridae CRZR3; HEK293-G5a cells, luminescence",equally high
same,activation of CRZR3 (in words),"B. floridae CRZR3; HEK293-G5a cells, luminescence","all activated by CRZ, GnRH, and CRZ-ext; also recorded: also activated by CRZ-ext"
same,EC50,B. floridae CRZR3,950 nM
same,"EC50 for the response, CRZR2 (in words)",B. floridae CRZR2,high nanomolar range
same,activation of CRZR2 (in words),B. floridae CRZR2,"all activated by CRZ, GnRH, and CRZ-ext"
same,activation of GnRHR2 (in words),"B. floridae GnRHR2; HEK293-G5a cells, luminescence",Neither of these two receptors were activated
"FTYTHTW-NH2 [CRZ, FTYTHTW-NH2]",EC50,B. floridae CRZR3,6.9 nM
YSYSYGFAP-NH2,"EC50 for the response, CRZR1 (in words)",B. floridae CRZR1,mid-to-low nanomolar physiological range
same,"EC50 for the response, GnRHR1 (in words)","B. floridae GnRHR1; HEK293-G5a cells, luminescence",low nanomolar range
same,EC50,"B. floridae GnRHR1; fig. 2D, HEK293-G5a, Gαqi9, 10^−4 M to 10^−12 M in DMEM, luminescence integrated over 65 s, normalized to maximum response, four-parameter curve, minimum of two independent transfections, read-out: EC50 values for the dose–response curves, GnRHR1",3.2 nM
same,EC50,B. floridae CRZR3,3800 nM
same,"EC50 for the response, GnRHR2 (in words)","B. floridae GnRHR2; HEK293-G5a cells, luminescence",low nanomolar range
same,EC50,"B. floridae GnRHR2; fig. 2D, HEK293-G5a, Gαqi9, 10^−4 M to 10^−12 M in DMEM, luminescence integrated over 65 s, normalized to maximum response, four-parameter curve, minimum of two independent transfections, read-out: EC50 values for the dose–response curves, GnRHR2",2.2 nM
